In ChEMBL document CHEMBL3885881, “DrugMatrix”:

Species on record: Rattus norvegicus
Experiment: DrugMatrix - Regimen: Daily Repeat
Format: toxicity, organism-based, Sprague-Dawley
Set-up: regimen Daily Repeat, gender Male, age 6-8 weeks
Settings: in vivo, po, route oral GAVAGE, vehicle .5 % CMC; for BASOPHIL / EOSINOPHIL / ERYTHROCYTE COUNT / HEMATOCRIT / HEMOGLOBIN / LEUKOCYTE COUNT / LYMPHOCYTE / MEAN CORPUSCULAR HEMOGLOBIN / MEAN CORPUSCULAR HEMOGLOBIN CONCENTRATION / MEAN CORPUSCULAR VOLUME / MONOCYTE / NEUTROPHIL / PLATELET COUNT: tissue Blood; for ALANINE AMINOTRANSFERASE / ALBUMIN / ALKALINE PHOSPHATASE / ASPARTATE AMINOTRANSFERASE / BLOOD UREA NITROGEN / CHLORIDE / CHOLESTEROL / CREATINE PHOSPHOKINASE / CREATININE / GLUCOSE / PHOSPHORUS / POTASSIUM / SODIUM / TOTAL PROTEIN: tissue Plasma
[1] = 0 mg/kg, 72 h, dose level Control, time 3 day
[2] = 0 mg/kg, 120 h, dose level Control, time 5 day
[3] = 1 mg/kg, 72 h, dose level Low, time 3 day

CN1C(C(=O)Nc2ccccn2)=C(O)c2ccccc2S1(=O)=O [PIROXICAM]
BASOPHIL [1]: 0% | EOSINOPHIL [1]: 0.33% | ERYTHROCYTE COUNT [1]: 6.03 x10E6/uL | HEMATOCRIT [1]: 38.8% | HEMOGLOBIN [1]: 14.26 G/DL | LEUKOCYTE COUNT [1]: 10.64 x10E3/uL | LYMPHOCYTE [1]: 83.33% | MEAN CORPUSCULAR HEMOGLOBIN [1]: 23.64 pg | MEAN CORPUSCULAR HEMOGLOBIN CONCENTRATION [1]: 36.74 G/DL | MEAN CORPUSCULAR VOLUME [1]: 64.32 fL | MONOCYTE [1]: 3.33% | NEUTROPHIL [1]: 13% | PLATELET COUNT [1]: 1264.4 x10E3/uL | ALANINE AMINOTRANSFERASE [1]: 38.83 u/L | ALBUMIN [1]: 3.55 G/DL | ALKALINE PHOSPHATASE [1]: 368.33 u/L | ASPARTATE AMINOTRANSFERASE [1]: 66.17 u/L | BLOOD UREA NITROGEN [1]: 15.67 mg/dL | CHLORIDE [1]: 104.33 MEQ/L | CHOLESTEROL [1]: 76.5 mg/dL | CREATINE PHOSPHOKINASE [1]: 166.83 u/L | CREATININE [1]: 0.52 mg/dL | GLUCOSE [1]: 173.17 mg/dL | PHOSPHORUS [1]: 11.68 mg/dL | POTASSIUM [1]: 6.43 MEQ/L | SODIUM [1]: 149.5 MEQ/L | TOTAL PROTEIN [1]: 5.93 G/DL | BASOPHIL [2]: 0% | EOSINOPHIL [2]: 0% | ERYTHROCYTE COUNT [2]: 5.88 x10E6/uL | HEMATOCRIT [2]: 37.87% | HEMOGLOBIN [2]: 14.48 G/DL | LEUKOCYTE COUNT [2]: 12.43 x10E3/uL | LYMPHOCYTE [2]: 84.17% | MEAN CORPUSCULAR HEMOGLOBIN [2]: 24.65 pg | MEAN CORPUSCULAR HEMOGLOBIN CONCENTRATION [2]: 38.25 G/DL | MEAN CORPUSCULAR VOLUME [2]: 64.47 fL | MONOCYTE [2]: 4.33% | NEUTROPHIL [2]: 11.5% | PLATELET COUNT [2]: 1182.33 x10E3/uL | ALANINE AMINOTRANSFERASE [2]: 38.67 u/L | ALBUMIN [2]: 3.55 G/DL | ALKALINE PHOSPHATASE [2]: 342.5 u/L | ASPARTATE AMINOTRANSFERASE [2]: 63.33 u/L | BLOOD UREA NITROGEN [2]: 15.5 mg/dL | CHLORIDE [2]: 104 MEQ/L | CHOLESTEROL [2]: 75.5 mg/dL | CREATINE PHOSPHOKINASE [2]: 142.5 u/L | CREATININE [2]: 0.62 mg/dL | GLUCOSE [2]: 165.17 mg/dL | PHOSPHORUS [2]: 10.87 mg/dL | POTASSIUM [2]: 6.85 MEQ/L | SODIUM [2]: 150.17 MEQ/L | TOTAL PROTEIN [2]: 5.93 G/DL | BASOPHIL [3]: 0% | EOSINOPHIL [3]: 0% | ERYTHROCYTE COUNT [3]: 6.55 x10E6/uL | HEMATOCRIT [3]: 42.8% | HEMOGLOBIN [3]: 15.95 G/DL | LEUKOCYTE COUNT [3]: 11.1 x10E3/uL | LYMPHOCYTE [3]: 85.5% | MEAN CORPUSCULAR HEMOGLOBIN [3]: 24.3 pg | MEAN CORPUSCULAR HEMOGLOBIN CONCENTRATION [3]: 37.3 G/DL | MEAN CORPUSCULAR VOLUME [3]: 65.25 fL | MONOCYTE [3]: 3.5% | NEUTROPHIL [3]: 11% | PLATELET COUNT [3]: 1530 x10E3/uL | ALANINE AMINOTRANSFERASE [3]: 31.5 u/L | ALBUMIN [3]: 3.75 G/DL | ALKALINE PHOSPHATASE [3]: 379 u/L | ASPARTATE AMINOTRANSFERASE [3]: 59 u/L | BLOOD UREA NITROGEN [3]: 16.5 mg/dL | CHLORIDE [3]: 102.5 MEQ/L | CHOLESTEROL [3]: 77.5 mg/dL | CREATINE PHOSPHOKINASE [3]: 142.5 u/L | CREATININE [3]: 0.4 mg/dL | GLUCOSE [3]: 174 mg/dL | PHOSPHORUS [3]: 13.7 mg/dL | POTASSIUM [3]: 6.85 MEQ/L | SODIUM [3]: 152 MEQ/L | TOTAL PROTEIN [3]: 6.2 G/DL
